Where “and” joins values, the source holds several entries; their conditions need not be identical. Identical values can stand only once. Where a SMILES comes first, the peptide text is derived from it. [ ]: non-standard residue; d: D form. Hyp = O=C(O)[C@@H]1C[C@@H](O)CN1
Tested on: CCL20/MIP-3 alpha
Assay: Example 9 Luminex, LPS hPBMCs: CCL20/MIP-3 alpha
Type: cell-based, human
Protocol: Treatment Human PBMCs were pretreated with YY-101, YDE-011 and YDE-043 or reference compound; Xiidra® at various concentration (ranging from 1 nM to 100 uM) for 2 h before stimulation. An equal volume of 0.5% DMSO was used as a vehicle control. Then, the cells were treated with LPS at 5 ug/ml. The supernatants from treated cells were harvested at 24 h and placed in a 96 well for Luminex cytokine & chemokine profiling using a Luminex 200 multiplex assay (Luminex; R&D system, USA).
The main study arm with triplicate wells per group in a 24-well plate: • 1. Blank • 2. PBMC: 0.5% DMSO • 3. PBMC+LPS (5 ug/ml) • 4. PBMC+YY-101 100 uM • 5. PBMC+YY-101 10 uM • 6. PBMC+YY-101 1 uM • 7. PBMC+YY-101 0.1 uM • 8. PBMC+YY-101 0.01 uM • 9. PBMC+LPS (5 ug/ml)+Xiidra®100 uM • 10. PBMC+LPS (5 ug/ml)+Xiidra® 10 uM • 11. PBMC+LPS (5 ug/ml)+Xiidra® 1 uM • 12. PBMC+LPS (5 ug/ml)+Xiidra®0.1 uM • 13. PBMC+LPS (5 ug/ml)+Xiidra®0.01 uM • 14. PBMC+LPS (5 ug/ml)+Xiidra®0.001 uM • 15. PBMC+LPS (5 ug/ml)+YY-101 100 uM • 16. PBMC+LPS (5 ug/ml)+YY-101 10 uM • 17. PBMC+LPS (5 ug/ml)+YY-101 1 uM • 18. PBMC+LPS (5 ug/ml)+YY-101 0.1 uM • 19. PBMC+LPS (5 ug/ml)+YY-101 0.01 uM • 20. PBMC+LPS (5 ug/ml)+YY-101 0.001 uM • 21. PBMC+LPS (5 ug/ml)+YDE-011 100 uM • 22. PBMC+LPS (5 ug/ml)+YDE-011 10 uM • 23. PBMC+LPS (5 ug/ml)+YDE-011 1 uM • 24. PBMC+LPS (5 ug/ml)+YDE-011 0.1 uM • 25. PBMC+LPS (5 ug/ml)+YDE-011 0.01 uM • 26. PBMC+LPS (5 ug/ml)+YDE-011 0.001 uM • 27. PBMC+LPS (5 ug/ml)+YDE-043 100 uM • 28. PBMC+LPS (5 ug/ml)+YDE-043 10 uM • 29. PBMC+LPS (5 ug/ml)+YDE-043 1 uM • 30. PBMC+LPS (5 ug/ml)+YDE-043 0.1 uM • 31. PBMC+LPS (5 ug/ml)+YDE-043 0.01 uM • 32. PBMC+LPS (5 ug/ml)+YDE-043 0.001 uM
Multiplex assay was used to measure 30 cytokines and chemokines. The 1:2, 1:10 and 1:200 diluted cell supernatant and serial dilution of the standard were dispensed into a 96 well plate at 50 ul/well. Then, the pre-mixed cocktail of antibody-coated magnetic beads was dispensed at 50 ul/well and incubated at room temperature for 2 h in a horizontal orbital microplate shaker at 800±500 rpm. The beads were washed using a magnetic device to prevent loss. The biotin-antibody was dispensed in 50 ul of each well and incubated at room temperature for 1 h in a shaker at 800±500 rpm. After washing, streptavidin-PE was added at 50 ul/well and incubated at room temperature for 30 min in a shaker under the same conditions. Finally, after washing, wash buffer (100 ul/well) was added to the plate and incubated in a shaker for 2 min. The Luminex™ 200 setting were set according to the manufacturer's protocol. The data was calculated with a standard five-parameter logistic nonlinear regression analysis of the data (xPonent software 4.2, USA). The levels of cytokine/chemokine are normalized to the live cell counts (1×10^5 cells/mL) and presented as concentrations per mL (pg/mL or ng/mL).

[1] = PBMC + LPS(5 ug/ml) + test article 0.001 uM, Mean
[2] = PBMC + LPS(5 ug/ml) + test article 0.001 uM, individual replicate
[3] = PBMC + LPS(5 ug/ml) + test article 0.01 uM, Mean
[4] = PBMC + LPS(5 ug/ml) + test article 0.01 uM, individual replicate
[5] = PBMC + LPS(5 ug/ml) + test article 0.1 uM, Mean
[6] = PBMC + LPS(5 ug/ml) + test article 0.1 uM, individual replicate
[7] = PBMC + LPS(5 ug/ml) + test article 1 uM, Mean
[8] = PBMC + LPS(5 ug/ml) + test article 1 uM, individual replicate
[9] = PBMC + LPS(5 ug/ml) + test article 10 uM, Mean
[10] = PBMC + LPS(5 ug/ml) + test article 10 uM, individual replicate
[11] = PBMC + LPS(5 ug/ml) + test article 100 uM, Mean
[12] = PBMC + LPS(5 ug/ml) + test article 100 uM, individual replicate

Row | SMILES | Concentration, CCL20/MIP-3 alpha [1] | MFI, CCL20/MIP-3 alpha [1] | conc/live cell, CCL20/MIP-3 alpha [1] | Concentration, CCL20/MIP-3 alpha [2] | MFI, CCL20/MIP-3 alpha [2] | conc/live cell, CCL20/MIP-3 alpha [2] | Concentration, CCL20/MIP-3 alpha [3] | MFI, CCL20/MIP-3 alpha [3] | conc/live cell, CCL20/MIP-3 alpha [3] | Concentration, CCL20/MIP-3 alpha [4] | MFI, CCL20/MIP-3 alpha [4] | conc/live cell, CCL20/MIP-3 alpha [4] | Concentration, CCL20/MIP-3 alpha [5] | MFI, CCL20/MIP-3 alpha [5] | conc/live cell, CCL20/MIP-3 alpha [5] | Concentration, CCL20/MIP-3 alpha [6] | MFI, CCL20/MIP-3 alpha [6] | conc/live cell, CCL20/MIP-3 alpha [6] | Concentration, CCL20/MIP-3 alpha [7] | MFI, CCL20/MIP-3 alpha [7] | other results
1 | CC(C)C[C@H](NC(=O)CNC(=O)[C@H](CC(C)C)NC(=O)[C@H](CCC(N)=O)NC(=O)CNC(=O)[C@@H]1C[C@@H](O)CN1)C(=O)N[C@@H](C)C(=O)NCC(=O)N1CCC[C@H]1C(=O)N[C@@H](CCCCN)C(=O)O [YDE-011] (H-[Hyp]GQLGLAGPK-OH) | 246.5 pg/mL | 263.3 | 46.9 pg/10^5 | 264.2 pg/mL and 223.2 pg/mL and 252.1 pg/mL | 284.5 and 235.5 and 270.0 | 58.7 pg/10^5 and 38.5 pg/10^5 and 43.5 pg/10^5 | 255.6 pg/mL | 274.2 | 44.2 pg/10^5 | 233.3 pg/mL and 258.8 pg/mL and 274.6 pg/mL | 247.5 and 278.0 and 297.0 | 37.0 pg/10^5 and 41.7 pg/10^5 and 53.8 pg/10^5 | 239.4 pg/mL | 254.8 | 42.0 pg/10^5 | 238.3 pg/mL and 231.6 pg/mL and 248.4 pg/mL | 253.5 and 245.5 and 265.5 | 36.1 pg/10^5 and 46.3 pg/10^5 and 43.6 pg/10^5 | 211.3 pg/mL | 221.5 | conc/live cell, CCL20/MIP-3 alpha [7]: 42.2 pg/10^5; Concentration, CCL20/MIP-3 alpha [8]: 203.6 pg/mL and 208.7 pg/mL and 221.5 pg/mL; MFI, CCL20/MIP-3 alpha [8]: 212.5 and 218.5 and 233.5; conc/live cell, CCL20/MIP-3 alpha [8]: 37.0 pg/10^5 and 43.5 pg/10^5 and 46.1 pg/10^5; Concentration, CCL20/MIP-3 alpha [9]: 230.3 pg/mL; MFI, CCL20/MIP-3 alpha [9]: 244.0; conc/live cell, CCL20/MIP-3 alpha [9]: 43.9 pg/10^5; Concentration, CCL20/MIP-3 alpha [10]: 234.1 pg/mL and 222.3 pg/mL and 234.5 pg/mL; MFI, CCL20/MIP-3 alpha [10]: 248.5 and 234.5 and 249.0; conc/live cell, CCL20/MIP-3 alpha [10]: 43.4 pg/10^5 and 38.3 pg/10^5 and 49.9 pg/10^5; Concentration, CCL20/MIP-3 alpha [11]: 323.4 pg/mL; MFI, CCL20/MIP-3 alpha [11]: 356.5; conc/live cell, CCL20/MIP-3 alpha [11]: 53.3 pg/10^5; Concentration, CCL20/MIP-3 alpha [12]: 342.2 pg/mL and 319.4 pg/mL and 308.7 pg/mL; MFI, CCL20/MIP-3 alpha [12]: 379.5 and 351.5 and 338.5; conc/live cell, CCL20/MIP-3 alpha [12]: 56.1 pg/10^5 and 52.4 pg/10^5 and 51.5 pg/10^5
2 | CC(C)C[C@H](NC(=O)[C@H](CCC(N)=O)NC(=O)CNC(=O)[C@@H]1C[C@@H](O)CN1)C(=O)NCC(=O)O [YDE-043] (H-[Hyp]GQLG-OH; N-terminus and C-terminus assumed) | 222.1 pg/mL | 234.3 | 45.5 pg/10^5 | 237.5 pg/mL and 214.3 pg/mL and 214.7 pg/mL | 252.5 and 225.0 and 225.5 | 54.0 pg/10^5 and 35.7 pg/10^5 and 46.7 pg/10^5 | 257.4 pg/mL | 276.3 | 49.7 pg/10^5 | 272.1 pg/mL and 235.8 pg/mL and 264.2 pg/mL | 294.0 and 250.5 and 284.5 | 60.5 pg/10^5 and 35.7 pg/10^5 and 52.8 pg/10^5 | 269.5 pg/mL | 290.8 | 50.0 pg/10^5 | 269.6 pg/mL and 266.7 pg/mL and 272.1 pg/mL | 291.0 and 287.5 and 294.0 | 53.9 pg/10^5 and 47.6 pg/10^5 and 48.6 pg/10^5 | 257.7 pg/mL | 276.7 | conc/live cell, CCL20/MIP-3 alpha [7]: 48.8 pg/10^5; Concentration, CCL20/MIP-3 alpha [8]: 267.1 pg/mL and 251.7 pg/mL and 254.2 pg/mL; MFI, CCL20/MIP-3 alpha [8]: 288.0 and 269.5 and 272.5; conc/live cell, CCL20/MIP-3 alpha [8]: 46.1 pg/10^5 and 52.4 pg/10^5 and 48.0 pg/10^5; Concentration, CCL20/MIP-3 alpha [9]: 267.8 pg/mL; MFI, CCL20/MIP-3 alpha [9]: 288.8; conc/live cell, CCL20/MIP-3 alpha [9]: 49.6 pg/10^5; Concentration, CCL20/MIP-3 alpha [10]: 260.1 pg/mL and 260.9 pg/mL and 282.4 pg/mL; MFI, CCL20/MIP-3 alpha [10]: 279.5 and 280.5 and 306.5; conc/live cell, CCL20/MIP-3 alpha [10]: 50.0 pg/10^5 and 48.3 pg/10^5 and 50.4 pg/10^5; Concentration, CCL20/MIP-3 alpha [11]: 358.3 pg/mL; MFI, CCL20/MIP-3 alpha [11]: 399.5; conc/live cell, CCL20/MIP-3 alpha [11]: 56.9 pg/10^5; Concentration, CCL20/MIP-3 alpha [12]: 381.7 pg/mL and 334.8 pg/mL; MFI, CCL20/MIP-3 alpha [12]: 428.5 and 370.5; conc/live cell, CCL20/MIP-3 alpha [12]: 61.6 pg/10^5 and 52.3 pg/10^5
